This note sets out measurements from US9611278B2 (Merck Sharp & Dohme Corp., priority 2013, dated 2017).

pEC50: −log10 of the molar value.

For the experiment, the target named is T1, sGC α1/β1 heterodimer stably expressed in CHO-K1 cells (CHO-K1/sGC) (Homo sapiens, UniProt Q02108+Q02153).
T1 construct: expressed in transfected cells
T1 sequence (Q02108 1-690): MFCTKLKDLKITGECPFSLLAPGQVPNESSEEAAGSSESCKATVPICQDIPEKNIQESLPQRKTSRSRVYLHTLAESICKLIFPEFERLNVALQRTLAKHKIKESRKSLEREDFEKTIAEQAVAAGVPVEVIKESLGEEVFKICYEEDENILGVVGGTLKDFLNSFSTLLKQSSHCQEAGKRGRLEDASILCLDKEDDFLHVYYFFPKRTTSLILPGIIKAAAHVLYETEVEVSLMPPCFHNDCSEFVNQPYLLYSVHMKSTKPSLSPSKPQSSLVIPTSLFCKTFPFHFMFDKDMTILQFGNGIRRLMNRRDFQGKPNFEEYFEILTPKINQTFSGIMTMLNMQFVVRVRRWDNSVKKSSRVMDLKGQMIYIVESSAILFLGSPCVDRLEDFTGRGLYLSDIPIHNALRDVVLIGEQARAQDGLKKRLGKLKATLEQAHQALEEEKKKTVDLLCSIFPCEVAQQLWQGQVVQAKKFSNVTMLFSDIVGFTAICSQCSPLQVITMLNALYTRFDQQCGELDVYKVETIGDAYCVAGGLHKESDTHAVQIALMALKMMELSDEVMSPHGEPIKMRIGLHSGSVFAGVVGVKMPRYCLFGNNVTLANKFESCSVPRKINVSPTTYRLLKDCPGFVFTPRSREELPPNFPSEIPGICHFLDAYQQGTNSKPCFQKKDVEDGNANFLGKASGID
T1 sequence (Q02153 1-619): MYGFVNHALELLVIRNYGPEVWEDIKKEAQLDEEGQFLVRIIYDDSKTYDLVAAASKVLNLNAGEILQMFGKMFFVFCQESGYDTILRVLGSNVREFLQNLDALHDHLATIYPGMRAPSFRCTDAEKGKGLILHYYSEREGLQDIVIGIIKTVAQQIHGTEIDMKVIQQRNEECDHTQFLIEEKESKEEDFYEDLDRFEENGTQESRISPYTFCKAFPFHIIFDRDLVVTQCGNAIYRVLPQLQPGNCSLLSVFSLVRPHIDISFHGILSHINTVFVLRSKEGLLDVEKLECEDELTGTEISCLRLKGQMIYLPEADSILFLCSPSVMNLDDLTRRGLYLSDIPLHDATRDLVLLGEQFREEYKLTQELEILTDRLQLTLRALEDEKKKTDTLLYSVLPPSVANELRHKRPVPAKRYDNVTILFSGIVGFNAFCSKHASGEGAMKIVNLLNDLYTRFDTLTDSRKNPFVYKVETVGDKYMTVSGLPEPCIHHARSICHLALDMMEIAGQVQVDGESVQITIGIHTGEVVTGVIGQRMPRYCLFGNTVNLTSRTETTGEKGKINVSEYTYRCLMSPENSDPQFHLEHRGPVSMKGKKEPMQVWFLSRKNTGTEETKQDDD
The experiment in a line: Cell-based sGC Functional Assay (CASA Assay). Particulars: for % Act.: activation as percentage of maximum cGMP production of Compound A (set to 100%); for pEC50: inflection point of cGMP generation in CHO-K1/sGC cells, 4P fit, 1 hr at 37° C., read-out: IP; for Emax: CHO-K1, activation as percentage of maximum cGMP production of Compound A (set to 100%), read-out: % Act. From the text:
sGC is a heme-containing enzyme that converts GTP to secondary messenger cGMP. Increases in cGMP levels affect several physiological processes including vasorelaxation through multiple downstream pathways. […] Heme-dependent activators (HDAs) preferentially activate sGC containing a ferrous heme group. To determine the effect of sGC activators on enzyme activity, the CASA assay was developed to monitor the generation of cGMP in a cell line that stably expresses the heterodimeric sGC protein.
A CHO-K1 cell line stably expressing the sGC α1/β1 heterodimer was generated using a standard transfection protocol. CHO-K1 cells were transfected with plasmids pIREShyghsGCα1 and pIRESneo-hsGCβ1 simultaneously using FUGENE reagent. Clones that stably express both subunits were selected with hygromycin and neomycin for ˜2 weeks. Clone #7 was chosen for the assay and was designated CHO-K1/sGC. CHO-K1/sGC cells were maintained in F-K12 medium containing 10% heat-inactivated Fetal Bovine Serum (FBS), 100 μg/mL penicillin/streptomycin, 0.5 mg/mL hygromycin and 0.25 mg/mL G418. The cells were then cryopreserved in LN2. On the day of the assay, cells thawed and resuspended in EBSS Assay Buffer (EAB, Sigma, E3024) supplemented with 5 mM MgCl2, 10 mM HEPES (4-(2-hydroxyethyl)piperazine-1-ethanesulfonic acid) and 0.05% BSA (bovine serum albumin) and cell density was then adjusted to 4×10^5/mL with EAB. IBMX (3-isobutyl-1-methylxanthin, 0.5 mM) was added to inhibit degradation of cGMP. Compounds were diluted from DMSO stock solutions and added to the assay at a final DMSO concentration of 2.5%. Cells were incubated with compounds in the presence and absence of 1 μM of Diethylenetriamine/nitric oxide adduct (DETA-NO; Sigma, 17018) for 1 hr at 37° C. At the end of the incubation period, the reaction was terminated and the cells were lysed with the detection reagents from Cisbio Kits. The level of intracellular cGMP was determined using an HTRF-based assay kit (CisBio, 62GM2PEC), which detects the displacement of a fluorescence labeled cGMP from its specific antibody. The cGMP produced by test compounds was directly compared to the maximum cGMP production (this value was set to equal 100% activation.) of the published sGC-HDA Compound A:
(Example 1 in WO 2010/065275, published Jun. 10, 2010). The test compounds' activity were then expressed as a percentage of Compound A, the standard in every experiment. This percent activation was calculated either in the presence or absence of DETA-NO which was then plotted. IP and maximum fold induction was derived using ADA analysis software for 4P fit.

In the case of “4-Amino-5-cyclopropyl-2-(6-((3,3-difluorocyclobutyl)methyl)-1-methyl-1H-pyrazolo[3,4-d]pyrimidin-4-yl)-5-(5-ethyl-1,3,4-oxadiazol-2-yl)-5,7-dihydro-6H-pyrrolo[2,3-d]pyrimidin-6-one [Example 52]”, the “% Act.” value was 148% and the pEC50 was 7.05.
For “4-Amino-5-ethyl-2-(1-methyl-6-(3,3,4,4,4-pentafluorobutyl)-1H-pyrazolo[3,4-d]pyrimidin-4-yl)-5-(1-propyl-1H-1,2,3-triazol-4-yl)-5,7-dihydro-6H-pyrrolo[2,3-d]pyrimidin-6-one [Example 73]”, the “% Act.” value was 117% and the pEC50 is 6.38.
Consider “4-Amino-5-methyl-5-(5-methyl-1,3,4-thiadiazol-2-yl)-2-(1-methyl-6-(3,3,4,4,4-pentafluorobutyl)-1H-pyrazolo[3,4-d]pyrimidin-4-yl)-5,7-dihydro-6H-pyrrolo[2,3-d]pyrimidin-6-one [Example 27]”, for which the “% Act.” value is recorded as 89% and the pEC50 was 6.68.
As to `CCCCc1nc(-c2nc(N)c3c(n2)NC(=O)C3(C)c2ccc(OC)cn2)c2cnn(C)c2n1` (single isomer, unassigned) [Example 36, 4-Amino-2-(6-butyl-1-methyl-1H-pyrazolo[3,4-d]pyrimidin-4-yl)-5-(5-methoxypyridin-2-yl)-5-methyl-5,7-dihydro-6H-pyrrolo[2,3-d]pyrimidin-6-one], the Emax came out at 116% and the pEC50 was 7.37.
Consider `[2H]C([2H])([2H])n1ncc2c(-c3nc(N)c4c(n3)NC(=O)C4(c3nnc(C)o3)C3CC3)nc(CCC(F)(F)C(F)(F)F)nc21` (single isomer, unassigned) [Example 40A, 4-Amino-5-cyclopropyl-5-(5-methyl-1,3,4-oxadiazol-2-yl)-2-(1-(methyl-d3)-6-(3,3,4,4,4-pentafluorobutyl)-1H-pyrazolo[3,4-d]pyrimidin-4-yl)-5,7-dihydro-6H-pyrrolo[2,3-d]pyrimidin-6-one], for which the “% Act.” value is 89% and the pEC50 is 6.43.
For the molecule `[2H]C([2H])([2H])n1ncc2c(-c3nc(N)c4c(n3)NC(=O)C4(c3nnc(C)o3)C3CC3)nc(CCC(F)(F)C(F)(F)F)nc21` (single isomer, unassigned) [Example 40B, 4-Amino-5-cyclopropyl-5-(5-methyl-1,3,4-oxadiazol-2-yl)-2-(1-(methyl-d3)-6-(3,3,4,4,4-pentafluorobutyl)-1H-pyrazolo[3,4-d]pyrimidin-4-yl)-5,7-dihydro-6H-pyrrolo[2,3-d]pyrimidin-6-one], the “% Act.” value was found to be 68% and the pEC50 is 6.53.
As to `[2H]C([2H])([2H])n1ncc2c(-c3nc(N)c4c(n3)NC(=O)C4(C)c3cn(C(C)C)nn3)nc(CCC(F)(F)C(F)(F)F)nc21` (single isomer, unassigned) [Example 57, 4-Amino-5-(1-isopropyl-1H-1,2,3-triazol-4-yl)-5-methyl-2-(1-(methyl-d3)-6-(3,3,4,4,4-pentafluorobutyl)-1H-pyrazolo[3,4-d]pyrimidin-4-yl)-5,7-dihydro-6H-pyrrolo[2,3-d]pyrimidin-6-one], the Emax amounted to 125% and the pEC50 is 6.83.
Turning to `CCC1(c2cn(C)nn2)C(=O)Nc2nc(-c3nc(CCC(F)(F)C(F)(F)F)nc4c3cnn4C)nc(N)c21` (single isomer, unassigned) [Example 58, 4-Amino-5-ethyl-5-(1-methyl-1H-1,2,3-triazol-4-yl)-2-(1-methyl-6-(3,3,4,4,4-pentafluorobutyl)-1H-pyrazolo[3,4-d]pyrimidin-4-yl)-5,7-dihydro-6H-pyrrolo[2,3-d]pyrimidin-6-one], the Emax stood at 105% and the pEC50 was 6.15.
In the case of `Cn1ncc2c(-c3nc(N)c4c(n3)NC(=O)C4(C)c3c[nH]nn3)nc(CCC(F)(F)C(F)(F)F)nc21` (single isomer, unassigned) [Example 60, 4-Amino-S-methyl-2-(1-methyl-6-(3,3,4,4,4-pentafluorobutyl)-1H-pyrazolo[3,4-d]pyrimidin-4-yl)-5-(1H-1,2,3-triazol-4-yl)-5,7-dihydro-6H-pyrrolo[2,3-d]pyrimidin-6-one], the Emax is 136% and the pEC50 was 6.03.
Taken in the same sequence, the figures for `Cn1cc(C2(C3CC3)C(=O)Nc3nc(-c4nc(CCCC(F)(F)F)nc5c4cnn5C)nc(N)c32)nn1` (single isomer, unassigned) [Example 62, 4-Amino-5-cyclopropyl-5-(1-methyl-1H-1,2,3-triazol-4-yl)-2-(1-methyl-6-(4,4,4-trifluorobutyl)-1H-pyrazolo[3,4-d]pyrimidin-4-yl)-5,7-dihydro-6H-pyrrolo[2,3-d]pyrimidin-6-one] were 99% and 6.10.
Turning to `CCC1(c2cn(C(C)C)nn2)C(=O)Nc2nc(-c3nc(CCC(F)(F)C(F)(F)F)nc4c3cnn4C)nc(N)c21` (single isomer, unassigned) [Example 68, 4-Amino-5-ethyl-5-(1-isopropyl-1H-1,2,3-triazol-4-yl)-2-(1-methyl-6-(3,3,4,4,4-pentafluorobutyl)-1H-pyrazolo[3,4-d]pyrimidin-4-yl)-5,7-dihydro-6H-pyrrolo[2,3-d]pyrimidin-6-one], the Emax was determined as 133% and the pEC50 was 6.09.
Turning to `CCCn1cc(C2(C)C(=O)Nc3nc(-c4nc(CCC(F)(F)C(F)(F)F)nc5c4cnn5C)nc(N)c32)nn1` (single isomer, unassigned) [Example 71, 4-Amino-5-methyl-2-(1-methyl-6-(3,3,4,4,4-pentafluorobutyl)-1H-pyrazolo[3,4-d]pyrimidin-4-yl)-5-(1-propyl-1H-1,2,3-triazol-4-yl)-5,7-dihydro-6H-pyrrolo[2,3-d]pyrimidin-6-one], the Emax was 169% and the pEC50 is 6.66.
With `CCCn1cc(C2(CC)C(=O)Nc3nc(-c4nc(CCC(F)(F)C(F)(F)F)nc5c4cnn5C)nc(N)c32)nn1` (single isomer, unassigned) [Example 72, 4-Amino-5-ethyl-2-(1-methyl-6-(3,3,4,4,4-pentafluorobutyl)-1H-pyrazolo[3,4-d]pyrimidin-4-yl)-5-(1-propyl-1H-1,2,3-triazol-4-yl)-5,7-dihydro-6H-pyrrolo[2,3-d]pyrimidin-6-one], the Emax worked out at 121% and the pEC50 was 6.30.
